# Data published in patent publication US20230039816A1, “METHOD FOR INDUCING HEPATOCYTE PLASTICITY” (Public University Corporation Yokohama City University, priority 2019, published 2023).
# Experiments:
# [1] = test system: old N-Heps (D52-, D62-, D72-, D82-Hep); assay: Plasticity induction of old N-Heps in RM with epigenetic regulators; type: cell-based, human; conditions: RM with 0.25 mM NaB, 0.5 mM VPA, 10 μM Trany, 0.5 μM RG108 or 0.5 μM BIX
# Description: (§1) The medium was changed on day 1, 3, and 5. To block the PI3K and MAPK signaling pathways, 10 μM LY29002 and a given dose of PD0325902 (0.01 μM˜1 μM) were each added to RM. […] To regulate epigenetic modification, 0.25 mM NaB, 0.5 mM VPA, 10 μM Trany, 0.5 μM RG108 and 0.5 μM BIX were added in RM. The number of cells was analyzed using an Incell analyzer 2000 (GE Healthcare) combined with Hoechst 33342 staining (Invitrogen).
# [2] = test system: D22-Hep; assay: Induction of proliferation of D22-Hep in reprogramming medium (RM); type: cell-based, human; conditions: 6 days in BM+SMs/RM; PD0325901 0.01-1 μM, LY294002 10 μM, DZNep 0.1 μM, FGF2 added to BM+SMs
# Description: as §1
# [3] = test system: elderly model (mice fed CDE diet); assay: Induction of hepatic progenitor cells in elderly mice on CDE diet; type: in vivo
# Text: Finally, we investigated whether HDACi could improve the induction of hepatic progenitor cells in elderly models. To induce hepatic progenitor cells in mice, we fed young and elderly mice with a choline-deficient, ethionine-supplemented (CDE) diet for 21 days.
# [4] = test system: PHHs; assay: Plasticity induction of primary human hepatocytes; type: cell-based; conditions: PHHs in RM+NaB vs RM
# Description: The cryopreserved PHHs were thawed according to the manufacturer's instructions. For the positive control experiments, PHHs were cultured on collagen I-coated culture dishes at a density of 1×10^5 cells/cm^2 using Williams E medium containing 5% FBS, 1 μM dexamethasone, 100 IU/mL penicillin (Thermo Fisher Scientific), 100 μg/mL streptomycin (Thermo Fisher Scientific), 4 μg/mL Human Recombinant Insulin (Sigma), 2 mM GlutaMAX (Thermo Fisher Scientific), and 15 mM HEPES (Sigma). After 24 h, the supernatant from PHHs was collected for ALB analysis. […] At day 0 of culture, 5% FBS was used to improve cell adherence. After 24 h, the medium was exchanged with a fresh medium and subsequently changed every 2 days.
# [5] = test system: EZH2; assay: EZH2 transcription by Q-PCR in reprogrammed hepatocytes; type: cell-based, human; conditions: RM treated D22-Hep
# Description: The medium was changed on day 1, 3, and 5. To block the PI3K and MAPK signaling pathways, 10 μM LY29002 and a given dose of PD0325902 (0.01 μM 1 μM) were each added to RM. […] To regulate epigenetic modification, 0.25 mM NaB, 0.5 mM VPA, 10 μM Trany, 0.5 μM RG108 and 0.5 μM BIX were added in RM. […] Total RNA was isolated using a PureLinkTM RNA Mini Kit.
# [6] = test system: D22-pHC; assay: Hepatocyte differentiation from pHC; type: cell-based, human; conditions: HDM with 3 μM RA, 15 days
# Description: The hepatocyte differentiation of pHCs was initiated at about 90% confluence. For 8 days, the medium was changed to HDM containing 3 μM RA and for another 7 days, the medium was changed to RA-free HDM. The medium was changed every 2 days. The total hepatocyte differentiation period was 15 days.
Compound,proliferation of pHCs induced from D52-Heps [1],induced cellular proliferation of D22-Hep [2],further results
N[C@@H]1C[C@H]1c1ccccc1 (racemic) [tranylcypromine],such promotion was not detectable,,
COc1cc2nc(N3CCCN(C)CC3)nc(NC3CCN(Cc4ccccc4)CC3)c2cc1OC [BIX01294],such promotion was not detectable,,
"Cl.Nc1nccc2c1ncn2[C@@H]1C=C(CO)[C@@H](O)[C@H]1O [DZNep, 3-deazaneplanocin A hydrochloride]",,significant attenuation of the induced cellular proliferation,
"CCCC(=O)[O-].[Na+] [NaB, sodium butyrate]",markedly promoted the proliferation of pHCs,,"survival rate ([3]; CDE diet): improved; induced Ki67 positive and Epcam positive population ([3]; CDE diet 21 days, liver sections): significantly increased; plasticity induction efficiency [4]: significantly increased the plasticity induction efficiency"
O=C(NOC[C@H](O)CO)c1ccc(F)c(F)c1Nc1ccc(I)cc1F [PD0325901],,inhibited the FGF2-mediated cellular proliferation in a dose-dependent manner,EZH2 transcription [5]: suppressed
O=C(O)C(Cc1c[nH]c2ccccc12)N1C(=O)c2ccccc2C1=O (stereo not shown) [RG108],such promotion was not detectable,,
"CCCC(CCC)C(=O)O [VPA, valproic acid]",markedly promoted the proliferation of pHCs,,
CC1=C(/C=C/C(C)=C/C=C/C(C)=C/C(=O)O)C(C)(C)CCC1 [retinoic acid],,,ALB production and hepatocyte morphology [6]: significant improvement in ALB production and typical hepatocyte morphology
"FGF2: Recombinant Human FGF2, member of the FGF family",,the induced proliferative ability greatly improved,
